Results on 1 compound are retold here after US12023308B2, “Agents for reversing toxic proteinopathies” (THE BROAD INSTITUTE, INC., priority 2019, dated 2024).

Entries after “also recorded” stand apart in the source; their conditions may differ.

Data set [1] deals with T1, TMED9 (Homo sapiens, UniProt Q9BVK6).
T1 construct: TMED9 abundance in P cells at escalating temperatures (as indicated) with or without treatment with BRD-4780; endogenous in cells; host or cells: P cells (intact cells treated, then heated and lysed)
T1 sequence (Q9BVK6 38-235): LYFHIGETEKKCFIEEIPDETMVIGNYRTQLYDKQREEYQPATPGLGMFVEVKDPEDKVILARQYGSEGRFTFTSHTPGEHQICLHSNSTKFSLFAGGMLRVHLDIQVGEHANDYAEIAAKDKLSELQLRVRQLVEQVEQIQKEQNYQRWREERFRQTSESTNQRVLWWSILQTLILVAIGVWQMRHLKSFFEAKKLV
As to the kind of experiment: TMED9 abundance (IF) in patient iPSC-derived kidney organoids. Type of data set: cell-based. The conditions noted are these: 10 μM, 72 hours. The protocol:
Kidney organoids were immersion-fixed for 15 min in 4% PFA at 4° C. and subsequently frozen in OCT using dry ice and 100% ethanol. Six […] cryostat sections (CM1950, Leica) were thaw-mounted on microscope slides (Fisherbrand™ Superfrost™ Plus, Fisher Scientific) and kept in the cryostat (at −26° C.) for the duration of the sectioning process. Prior to immunostaining, organoid sections were rinsed in PBS for 5 min, incubated for 20 min at room temperature (RT) in PBS blocking solution containing 5% normal donkey serum (530-100ML, EMD Millipore) and 1.5% Tween® 20 (P1379, Sigma-Aldrich), then incubated overnight at 4° C. with primary antibodies diluted in the same blocking solution (1:500, monoclonal Armenian hamster anti-MUC1, Ab80952, Abcam; 1:500, monoclonal Fab-A-VSH anti-fsMUC1, AbD22655.4, Bio-Rad; 1:300 monoclonal Rat anti-E Cadherin [DECMA-1], ab11512, Abcam; 1:500 polyclonal Rabbit anti-Laminin, L9393-100UL, Sigma-Aldrich; 1:500 Na/K-ATPase, ab76020, Abcam; 1:300 Fluorescein labeled Lotus Tetragonolobus Lectin (LTL), FL-1321, Vector laboratories; 1:100, polyclonal, Rabbit anti-TMED9, 21620-1-AP, Proteintech). […]

Data set [2] can be described thus: In vitro toxicity (cell number / viability). The format is cell-based. To be noted: any concentration tested.
Text: Image acquisition and analysis was done as described elsewhere herein. Following image analysis, three parameters were selected, i) MUC1-fs and ii) MUC1-wt total cytoplasm intensity (averaged per cell) and iii) cell number as was detected by Hoechst 33342 stained nuclei. The levels of MUC1-fs and MUC1-wt found following DMSO and JQ1 were defined as 0 and −100% activity, respectively. […] Cell number was normalized to DMSO control. All compound concentrations showing >−20% reduction in cell number were masked out. Based on ±3 median absolute deviation value (FIG. 10A), hit calling criteria for the primary and secondary screens were chosen as MUC1-fs reduction >30% in two or more consecutive concentrations for both replicates. For the secondary screen, dose response curves were generated for each parameter using Genedata Screener (Genedata AG), and positive hits for the profiling screens were selected based on the compounds activity for reducing MUC1-fs and lack of toxicity. MUC1-fs specificity (according to MUC1 fs/wt ratio) was used as an additional positive criterion for selection.
The target in data set [3] is T1, TMED9. As to the kind of experiment: Cellular thermal shift assay (CETSA) for TMED9 in P cells. Type of data set: binding. To be noted: 5 μM, 1 hour. The protocol:
CETSAs were performed as previously described (Jafari et al., 2014; Reinhard et al., 2015). In brief, P cells were treated in the presence or absence of BRD-4780 for 1 hr, harvested (trypsinized), washed in PBS, resuspended in PBS (containing protease inhibitors) and distributed in 0.2 ml PCR tubes (100 μl; 600,000 cells). Cells were incubated at their designated temperatures for 3 min, then at 25° C. for 3 min and lysed by the addition of 1% NP-40. Immediately thereafter, samples were snap frozen and thawed using thermal cycler set at 25° C. Samples were spun at 20′000×g for 20 min (4° C.) to remove precipitated protein and the supernatant was analyzed by Western blot to examine the TMED9/Nischarin thermal stability.

Regarding `CC(C)[C@@H]1[C@H]2CC[C@H](C2)[C@H]1N` (racemic) [BRD-4780, 2-endo-amino-3-exo-isopropylbicyclo[2.2.1]heptane], the “TMED9 abundance in patient organoids” value in data set [1] is “reduced TMED9 to levels comparable to cells in N1 organoids”. For the same compound, in data set [2], the in vitro toxicity result is reported as “no overt toxicity at any concentration tested”. Further, in data set [3], the “TMED9 thermal stability (CETSA)” value is “shifted the TMED9 heat denaturation curve to significantly higher temperatures; also recorded: Higher abundance of TMED9 was noted at temperatures >47 °C”.
